The METLIN SMRT retention time set (Domingo-Almenara et al. 2019)

Test: gradient 5% acetonitrile 3 min, to 50% in 2 min, to 85% in 15 min, held 3 min, 100 µL/min
Details: column: Zorbax Extend-C18 2.1 x 50 mm; eluents: water / acetonitrile, 0.1% formic acid
How it was run: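 The mobile phases were water and acetonitrile, each with 0.1% formic acid, pumped at 100 μL/min through a Zorbax Extend-C18 column (2.1 × 50 mm, 1.8 μm). Pure standards were injected as mixtures of ~100 molecules and detected by a quadrupole time-of-flight mass spectrometer in positive and negative ionization mode. Retention time came from computationally picked adduct peaks, each inspected by hand.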

RP-LC retention time [s]	SMILES
934	COc1cccc(CNC(=O)C2(C)CCN(C(=O)Nc3ccc(Br)c(C)c3)CC2)c1
810	CCN1C(=O)c2cccnc2Sc2cc(C(=O)NCc3cccc(F)c3)ccc21
1020	Cc1cc(C)n(CCN(C(=O)c2ccc([N+](=O)[O-])s2)c2nc3ccccc3s2)n1
753	CCOCCCNC(=O)CCc1nnc2c3cc(-c4ccc(C)c(C)c4)nn3ccn12
683	O=C(O)c1ccc(-c2nnc3ccc(NC(=O)C4CCC4)cn23)cc1
906	COc1cccc(-c2ccnc3nc(-c4cccs4)nn23)c1
876	O=C(Cc1c[nH]c2ccccc12)Nc1cc(-c2ccsc2)no1
575	CCN(CC)S(=O)(=O)c1ccc(C)c(NC(=O)c2ccccc2C(=O)O)c1
592	O=C(Nc1nc(-c2cccnc2)cs1)C1CN(c2nc3ccccc3s2)C1
921	Cn1nnc2ccc(-c3noc(Cc4cccc(F)c4)n3)cc21
973	COc1ccc(-c2nnc(Cc3nc(-c4ccccc4Cl)no3)o2)cc1
796	COc1ccc(Cn2cc(S(=O)(=O)N3CCCC3)ccc2=O)cc1
700	COC(=O)C(Cc1ccccc1)NC(=O)Nc1cccn2cnnc12 (stereo unspecified)
969	CC(=O)c1ccc(-n2ccc3c(cnc4c(-c5ccccc5)c(C)nn43)c2=O)cc1
895	O=C(Cn1c(=O)c(S(=O)(=O)c2ccccc2)cc2ccccc21)NCc1ccccc1Cl
916	Fc1cccc(-c2noc(CSc3nccn3-c3ccccc3)n2)c1
891	COc1cccc(NC(=O)C2CCCN(c3ncnc4oc(C)c(C)c34)C2)c1 (stereo unspecified)
735	Cc1cc(NC(=O)C(C)n2nc(-c3ccc(F)cc3)ccc2=O)on1 (stereo unspecified)
738	COc1ccc(NS(=O)(=O)c2ccc3c(c2)CCCC(=O)N3)cc1Cl
718	COCC(=O)N1N=C(c2cccc(NS(C)(=O)=O)c2)CC1c1ccccc1F (stereo unspecified)

RP-LC retention time [s]	SMILES
617	CCc1ccc(CNC(=O)C2Cc3cc(S(=O)(=O)N(CC)CC)ccc3N2C(C)=O)cc1 (stereo unspecified)
631	COCc1cc(=O)n(CC(=O)Nc2cc(C)ccc2C)c(N)n1
736	COc1ccc(CC(=O)N2CCCC2c2cc(C)on2)cc1 (stereo unspecified)
732	Nc1cc(C2CCN(C(=O)Nc3ccc(Br)cc3)CC2)no1
784	O=C(Nc1cc(-c2cccs2)nn1CCO)C1COc2ccccc2O1 (stereo unspecified)
727	COc1ccc(Cl)cc1NC(=O)Cn1c(C)nc(-c2ccccn2)cc1=O
1350	Cc1cc(C)c(S(=O)(=O)N2CCCC2c2nc(-c3cccc(Cl)c3)no2)c(C)c1 (stereo unspecified)
665	CCCNC(=O)C1CCN(c2ccc(SCC(=O)Nc3cc(F)cc(F)c3)nn2)CC1
816	CCn1c(=O)c(C(=O)NCc2ccc(F)cc2F)nc2cccnc21
766	O=C(Cn1cccc1-c1nnc(C2CCC2)o1)NCCc1ccc(Cl)cc1
992	CCCc1cc(SCc2ccc(C(=O)OC)cc2)ncn1
906	O=C(Nc1ccc(N2CCN(c3ccccc3)C2=O)nc1)c1ccccc1
919	CCc1nc2ccccc2c(=O)n1Cc1noc(-c2ccc(C#N)cc2)n1
787	O=C(NCc1ccc(OC(F)(F)F)cc1)C1c2c(F)cccc2C(=O)N1CCc1ccccn1 (stereo unspecified)
1070	CCN1C(=O)COc2ccc(-c3csc(NC(=O)CCc4ccc(C)cc4)n3)cc21
923	Cn1nc(C(=O)N2CCC3(CC2)N=C(c2cccc(Br)c2)NO3)c2ccccc21
827	CCCCC(=O)Nc1ccc(OCc2cc(C(=O)NC(C)C)no2)cc1
1030	Cc1ccc(N2C(=O)C3N=NN(Cc4nc(-c5ccccc5Br)no4)C3C2=O)cc1C (stereo unspecified)
742	CCOC(=O)c1cccc(NC(=O)Nc2cccc(-c3ccc(N4CCOCC4)nn3)c2)c1

The remaining lines, values behind:

SMILES	RP-LC retention time [s]
O=C(NCc1nnnn1C1CCCCC1)C1CC1	647
COc1ccc(Cl)cc1S(=O)(=O)NCC1CCN(c2ncccn2)CC1	772
Cc1ccc(Sc2nccnc2N2CCC(C(=O)NCC3CCCO3)CC2)cc1 (stereo unspecified)	814
COc1ccc(C2NCCc3c2[nH]c2ccccc32)cc1O (stereo unspecified)	582
N#Cc1cccc(NC(=O)Cn2nc3n(c2=O)CCCC3)c1	638
Cc1c(N2C(=O)[C@@H]3[C@H](O)CCN3C2=O)ccc(C#N)c1Cl	765
COc1cccc(S(=O)(=O)N2C[C@@H](F)C[C@H]2C(=O)N2CCc3ccccc3C2)c1	904
CC(=O)c1ccc(N2CCN(c3ccc(NC(=O)C4CCC4)c(C(=O)O)c3)CC2)cc1	853
O=C(CCSc1ccccc1)N1CCCC(c2nnc(-c3cccs3)o2)C1 (stereo unspecified)	837
CCN1CCN(c2c(S(=O)(=O)c3ccc(OC)cc3)cnc3ccc(OC)cc23)CC1	640
Cc1ccc(S(=O)(=O)C2CS(=O)(=O)CC2S(=O)(=O)c2ccc(C)cc2)cc1 (stereo unspecified)	856
CCc1nc2cc(N3CCCC(C(=O)NC4CCCC4)C3)cnc2nc1CC (stereo unspecified)	785
Cc1cc(C)cc(NC(=O)NCC2(N3CCOCC3)CCOC2)c1 (stereo unspecified)	617
CC1=C(C(=O)N2CCOCC2)C(c2ccccc2Br)C2=C(CC(C)(C)CC2=O)N1 (stereo unspecified)	683
CCc1noc([C@@H]2CC(F)(F)CN2C(=O)CCn2ccnc2)n1	590
O=C(Cc1c[nH]c2ccccc12)N1CCN2CCS(=O)(=O)N(C3CC3)C(=O)C2C1 (stereo unspecified)	743
Cc1ccc2c(C(=O)NCCN3CCCCC3)cc(NC(=O)C3CCC3)cc2n1	562
CN(CCNC(=O)CCC(=O)N1CCc2c(c(C(=O)N3CCCC3)nn2C)C1)C1CCCCC1	590
Cc1nc(-c2cccnc2)nc2c1CCC(=O)N2Cc1cccnc1	560
COc1ccc(Cl)cc1NC(=O)Nc1ccc2c(c1)CN(C(=O)C1CC1)CC2	871
COc1cc(-n2c(=S)[nH]c3ccccc3c2=O)c(Cl)cc1Cl	923
O=C(O)C1CN(CCCP(=O)(O)O)CCN1 (stereo unspecified)	627
O=C(NCc1ccc(F)c(Cl)c1)c1cn2c(n1)CCCC2	628
CC1=CS/C(=C(/C#N)C(=O)N2CCOCC2)N1c1ccccc1	635
CCS(=O)(=O)N(C)C1CCc2nn(Cc3ccccc3)c(=O)n2CC1 (stereo unspecified)	710
CCOC(CCNC(=O)CCC(=O)Nc1ccc2nc(N3CCN(C)CC3)cc(C)c2c1)OCC	546

SMILES	RP-LC retention time [s]
Cc1cc(CC(=O)N2CCCn3ccnc3C2C2CCCC2)on1 (stereo unspecified)	587
O=C(Nc1ccc2c(c1)OCO2)N1CCC(n2c(-c3ccco3)nc3cccnc32)C1 (stereo unspecified)	726
Cc1cc(C)cc(N2CCC(NC(=O)NC(C)C)C2=O)c1 (stereo unspecified)	736
CCC(=O)N1CCc2cc(N3CC(C(=O)N4CCN(C)CC4)CC3=O)ccc21 (stereo unspecified)	563
CN(C)c1nc2cc(C(=O)N3CCOCC3)sc2n1-c1ccccc1	614
CC12C(=O)N(c3nccs3)C(=O)C1(C)C1CCC2O1 (stereo unspecified)	741
CNC(=O)C1CCCN(c2nc3ncn(CC(=O)Nc4ccc5c(c4)OCO5)c(=O)c3s2)C1 (stereo unspecified)	1110
COc1cc(-c2nnc(SCc3c(F)cccc3Cl)o2)cc(OC)c1OC	1070
O=C(NC1CCCC1)c1csc(-c2ccc(N3CCCCC3)nc2)n1	937
Cc1nc(Nc2ccc(Br)cn2)sc1C(=O)N1CCN(C)CC1	606
CC1CCC2(CC1)NC(=O)N(CC(=O)Nc1ccccc1Cl)C2=O (stereo unspecified)	858
O=C(Cn1c(-c2nnco2)cc2ccccc21)NCC1CCCO1 (stereo unspecified)	668
CCc1ccccc1N(CC)C(=O)C1CCCN(c2ncnc3c2nc2n3CCCCC2)C1 (stereo unspecified)	964
COCCC(=O)NC1CCN(C2=NS(=O)(=O)C(c3ccc(C)c(C)c3)=C2C)CC1	722
O=C(Cc1c(Sc2ccccc2)[nH]c2ccccc12)N1CCN(c2ccccn2)CC1	679
Cc1ccc(-c2cc(-c3cc(-c4ccc(C)cc4C)n[nH]3)[nH]n2)c(C)c1	1070
CCNC(=O)Nc1ccc(OCC(=O)NC2CCN(Cc3ccccc3)CC2)nc1	584
CNC(=O)N1CCc2nn(Cc3ccccc3)c(=O)n2CC1	614
CCNc1nc(NCC)n2c(SCC(=O)c3cccc(Br)c3)nnc2n1	680
COc1ncc(C(=O)N2CCc3ccccc3C2)cn1	729
O=C1CN(C(=O)Cc2ccc(OC(F)(F)F)cc2)C2(CCCC2)CN1	790
CC(C)CCN1CCC(N2CCN(C(=O)CC(C)C)CC2)C1=O (stereo unspecified)	579
COc1cc(OC)cc(-c2nnc(Cc3nc(-c4ccccc4Cl)no3)o2)c1	1020
CCOC(=O)C1CCN(C(=O)COc2ccc(NC(C)=O)cn2)CC1	633
CCNC(=O)c1nc2ccccc2n(CC)c1=O	659
Cc1ccoc1C(=O)N[C@@H]1CN(c2ncccn2)C[C@H]1CO	588
